Where two headings read alike, the source gives them in different places.
Key:
[1] = tested on: female adult citrus red mites; assay: whole plant or invertebrate; format: in vivo; settings: Panonychus citri, in Citrus x aurantium, 48 h, read-out: mortality of the female adult citrus red mites
Description: Thereafter, 10 female adult citrus red mites were released on the Citrus aurantium leaf on the cup. The next day, a miticidal formulation containing a compound of the invention (100 ppm) was prepared by adding an aqueous solution of Sorpol 355 (manufactured by Toho Kagagu Co., Ltd.) to an acetone solution containing the compound of the invention. […] The mortality of the female adult citrus red mites was determined two days after the spraying.

[2] = tested on: female adult Kanzawa spider mites; assay: whole plant or invertebrate; format: in vivo; settings: Tetranychus kanzawai, in Phaseolus vulgaris, 48 h, read-out: mortality of the female adult Kanzawa spider mites
Description: A kidney bean leaf (3.5 cm×4.5 cm) was placed with the rear side up on the sufficiently soaked non-woven fabric. Thereafter, 20 female adult Kanzawa spider mites were released on the kidney bean leaf on the cup. […] The mortality of the female adult Kanzawa spider mites was determined two days after the spraying.

citrus rust mites = settings: sprayed on Citrus aurantium leaf
Description: A plastic cup (trade name: KP-120, manufactured by Konoike Plastic Co., Ltd., Iwata) was filled with tap water, and covered with a lid having a notch cut therein. A piece (4.5×5.5 cm) of non-woven fabric having a slit of about 4 cm in length, the slit being made parallel to the longer side of the fabric at a distance of 1 cm from the edge, was placed on the lid. The 4-cm long, 1-cm wide portion of the fabric was suspended inside the plastic cup through the notch. A Citrus aurantium leaf (3 cm×3 cm) was placed with the front side up on the sufficiently soaked non-woven fabric. To prevent drying and escape of mites, the leaf was covered with a filter paper (diameter: 5 cm, No. 2, Advantec Toyo Kaisha, Ltd.) having two holes of 10 mm in diameter. A leaf on which the citrus rust mites were bred was cut out into pieces with a cork borer (diameter: 2 mm), and the leaf pieces were placed with the front side up on the Citrus aurantium leaf on the non-woven fabric. The next day, the dry leaf pieces were removed. […] Subsequently, 4 ml of a miticidal formulation containing a test compound (100 ppm or 200 ppm), which was prepared according to Test Example 1, was sprayed over the leaf with a spray gun (PB-308 Piece Bon, Olympos, Osaka; 1 kgf/cm^2). […] The mortality of the citrus rust mites was determined two days after the spraying. […]

[3] = tested on: Two-spotted spider mites (eggs); assay: Ovicidal test on two-spotted spider mites (Test Example 2); format: in vivo, Tetranychus urticae; settings: 500 ppm sprayed on kidney bean leaf; six days after the spraying
Description: A kidney bean leaf (about 3.5×4.5 cm) was placed on the sufficiently soaked non-woven fabric. Female adult two-spotted spider mites (about 5 mites) were released on the leaf, and the leaf was placed in a thermostatic chamber (25±2° C., 16L8D). […] The ovicidal rate of the two-spotted spider mites was determined six days after the spraying.

Two-spotted spider mites = assay: whole plant or invertebrate; format: in vivo; settings: Tetranychus urticae, in Phaseolus vulgaris, 48 h, read-out: mortality of the two-spotted spider mites, 500 ppm sprayed on kidney bean leaf; two days after the spraying
Description: A kidney bean leaf (about 3.5×4.5 cm) was placed on the sufficiently soaked non-woven fabric. Two-spotted spider mites (about twenty mites) were released on the leaf, and the leaf was placed in a thermostatic chamber (25±2° C., 16L8D). The next day, a miticidal formulation containing a compound of the invention (500 ppm) was prepared by adding an aqueous solution of Sorpol 355 (manufactured by Toho Kagagu Co., Ltd.) (100 ppm) to an acetone solution containing the compound of the invention. […] The mortality of the two-spotted spider mites was determined two days after the spraying.

Work on `C[C@@H]1CN(c2ccc(C(F)(F)F)cn2)CC[C@H]1Oc1cc(-c2cc(F)cc(F)c2)n[nH]1` (relative stereo) [1a-296, trans-4-[3-(3,5-difluorophenyl)pyrazol-5-yloxy]-3-methyl-1-[5-(trifluoromethyl)-2-pyridyl]-piperidine] yielded a melting point of 136.9 to 137.6 °C.

`C[C@@H]1CN(c2ccc(C(F)(F)F)cn2)CC[C@H]1Oc1cc(-c2cc(F)cc(F)c2)nn1CC1OCCO1` (relative stereo) [1a-301, trans-4-[1-(1,3-dioxolan-2-yl)methyl-3-(3,5-difluorophenyl)pyrazol-5-yloxy]-3-methyl-1-[5-(trifluoromethyl)-2-pyridyl]-piperidine] showed a mortality at 100 ppm [1] of 100% and a mortality at 100 ppm [2] of 100%.

Work on `CCCCn1nc(C(F)(F)F)cc1OC1CCN(c2ccc(C(F)(F)F)cn2)CC1` [1a-17, 4-[1-butyl-3-(trifluoromethyl)pyrazol-5-yloxy]-1-[5-(trifluoromethyl)-2-pyridyl]-piperidine] yielded a mortality at 100 ppm [2] of 100%.

With `CC(C)(C)n1nc(C(F)(F)F)cc1OC1CCN(c2ccc(C(F)(F)F)cn2)CC1` [1a-26] the “Insect mortality (%)” value (citrus rust mites; 100 ppm test compound) was 100% and the “Insect mortality (%)” value (citrus rust mites; 200 ppm test compound) was 67%.

In the case of `FC(F)(F)c1ccc(N2CCC(Oc3cc(C(F)(F)F)nn3-c3cccc(Cl)c3)CC2)nc1` [1a-62, 4-[1-(3-chlorophenyl)-3-(trifluoromethyl)pyrazol-5-yloxy]-1-[5-(trifluoromethyl)-2-pyridyl]-piperidine], the mortality at 100 ppm [1] is reported as 100%.

Work on `Cn1nc(-c2cc(Cl)cc(Cl)c2)cc1OC1CCN(c2ccc(C(F)(F)F)cn2)CC1` [1a-107, 4-[3-(3,5-dichlorophenyl)-1-methylpyrazol-5-yloxy]-1-[5-(trifluoromethyl)-2-pyridyl]-piperidine] yielded a melting point of 161.8 to 162.4 °C.

Work on `Cn1nc(C(F)(F)F)cc1OC1CCN(c2ccc(C(F)(F)F)cn2)CC1(C)C` (centres unmarked) [1a-215, 3,3-dimethyl-4-[1-methyl-3-(trifluoromethyl)pyrazol-5-yloxy]-1-[5-(trifluoromethyl)-2-pyridyl]-piperidine] yielded a melting point of 102.5 to 103 °C.

`CCCCn1nc(C(F)(F)F)cc1S(=O)(=O)C1CCN(c2ccc(C(F)(F)F)cn2)CC1` [1a-218, 4-[1-butyl-3-(trifluoromethyl)pyrazol-5-ylsulfonyl]-1-[5-(trifluoromethyl)-2-pyridyl]-piperidine] gave a melting point of 105.3 to 105.6 °C.

In the case of `CCCCn1nc(-c2ccc(F)cc2)cc1OC1CCN(c2ccc(C(F)(F)F)cn2)CC1` [1a-236], the “ovicidal rate of the two-spotted spider mites” value (shortened to “ovicidal rate”) [3] is reported as 100%.

Compound `FC(F)(F)c1ccc(N2CCC(Oc3cc(C(F)(F)F)n[nH]3)CC2)nc1` [1a-245, 4-[3-(trifluoromethyl)pyrazol-5-yloxy]-1-[5-(trifluoromethyl)-2-pyridyl]-piperidine] has a melting point of 133.8 to 134.5 °C.

For `Cc1ccc(-n2nc(C(F)(F)F)cc2OC2CCN(c3ccc(C(F)(F)F)cn3)CC2)nc1` [1a-247], the “ovicidal rate” value [3] was 100%.

With `CCCCn1nc(-c2cc(Cl)ncc2Cl)cc1OC1CCN(c2ccc(C(F)(F)F)cn2)CC1` [1a-249] the “ovicidal rate” value [3] was 100%.

`CCOC(=O)n1nc(C(F)(F)F)cc1OC1CCN(c2ccc(C(F)(F)F)cn2)CC1` [1a-288, 4-[1-ethoxycarbonyl-3-(trifluoromethyl)pyrazol-5-yloxy]-1-[5-(trifluoromethyl)-2-pyridyl]-piperidine] showed a mortality at 500 ppm (Two-spotted spider mites) of at least 50%.

With `FC(F)(F)CCCn1nc(OC2CCN(c3ccc(C(F)(F)F)cn3)CC2)cc1C(F)(F)F` [1b-49] the “ovicidal rate” value [3] was 100%.

In the case of `COC(Cn1nc(O[C@@H]2[C@@H]3CC[C@H]2CN(c2ccc(C(F)(F)F)cn2)C3)cc1C(F)(F)F)OC` [1b-52, 8β-[1-(2,2-dimethoxy)ethyl-5-(trifluoromethyl)pyrazol-3-yloxy]-1-[5-(trifluoromethyl)-2-pyridyl]-3-azabicyclo[3.2.1]octane], the mortality at 500 ppm (Two-spotted spider mites) is reported as at least 50%.
